{
  "source": "patent US9656953B2",
  "about": "“Inhibition of cell proliferation” (University of South Florida, priority 2005, dated 2017)",
  "key": {"Rb:Raf-1 binding": {"target": "T1, Rb:Raf-1 binding (Homo sapiens, UniProt P04049+P06400)", "T1 construct": "a glutathione S-transferase (GST) Raf-1 (1-149aa) overnight at 4° C; made in house", "T1 sequence (P04049 1-149 limits assumed)": "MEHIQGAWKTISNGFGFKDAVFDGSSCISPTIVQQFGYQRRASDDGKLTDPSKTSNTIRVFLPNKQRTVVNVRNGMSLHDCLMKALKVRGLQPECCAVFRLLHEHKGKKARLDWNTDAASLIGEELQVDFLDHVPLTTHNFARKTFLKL", "T1 sequence (P06400 whole entry)": "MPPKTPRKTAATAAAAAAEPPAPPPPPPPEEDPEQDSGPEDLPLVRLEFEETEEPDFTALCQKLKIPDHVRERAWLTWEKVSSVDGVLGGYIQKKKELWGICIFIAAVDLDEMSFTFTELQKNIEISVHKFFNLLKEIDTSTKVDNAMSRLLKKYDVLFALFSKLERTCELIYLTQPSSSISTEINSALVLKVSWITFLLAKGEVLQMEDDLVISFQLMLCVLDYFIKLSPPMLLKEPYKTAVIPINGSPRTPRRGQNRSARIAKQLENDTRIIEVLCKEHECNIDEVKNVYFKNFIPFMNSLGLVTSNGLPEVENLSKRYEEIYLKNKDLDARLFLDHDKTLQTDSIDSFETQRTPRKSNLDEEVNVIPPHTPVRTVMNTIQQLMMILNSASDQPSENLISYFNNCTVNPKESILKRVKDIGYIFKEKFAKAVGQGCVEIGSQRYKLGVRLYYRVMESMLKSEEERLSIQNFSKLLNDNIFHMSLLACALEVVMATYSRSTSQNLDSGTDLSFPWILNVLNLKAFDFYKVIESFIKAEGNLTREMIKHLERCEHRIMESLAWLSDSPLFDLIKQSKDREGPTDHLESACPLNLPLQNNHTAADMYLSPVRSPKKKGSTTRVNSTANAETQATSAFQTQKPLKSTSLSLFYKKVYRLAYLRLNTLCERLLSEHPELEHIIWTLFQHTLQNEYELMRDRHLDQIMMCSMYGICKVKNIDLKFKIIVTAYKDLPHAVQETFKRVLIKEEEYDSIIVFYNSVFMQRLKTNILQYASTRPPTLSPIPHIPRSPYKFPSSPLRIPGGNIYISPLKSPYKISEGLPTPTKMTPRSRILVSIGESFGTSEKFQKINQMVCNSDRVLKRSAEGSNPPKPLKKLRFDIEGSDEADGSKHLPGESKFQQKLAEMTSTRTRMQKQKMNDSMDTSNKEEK", "assay": "GST-Rb/GST-Raf-1 ELISA", "conditions": "concentration that inhibits the Rb:Raf-1 binding by 50%, triplicate; read-out: IC50 (nM), inhibition of the Rb:Raf-1 binding", "protocol": "In vitro library screening assays. Enzyme Linked ImmunoSorbent Assay (ELISA) 96-well plates were coated with 1 μg/mL of a glutathione S-transferase (GST) Raf-1 (1-149aa) overnight at 4° C. Subsequently the plates were blocked and GST Rb at 20 μg/mL was rotated at room temperature (RT) for 30 minutes in the presence or absence of the compounds at 20 micromolar (μM). GST-Rb +/− compounds were then added to the plate and incubated for 90 minutes (min) at 37° C. The amount of Rb bound to Raf-1 was detected by Rb polyclonal antibody (Santa Cruz Biotechnology, Santa Cruz, Calif.) 1:1000 incubated for 60 min at 37° C. Donkey-anti-rabbit-IgG-HRP (1:10,000) was added to the plate and incubated at 37° C. for 60 minutes. The color was developed with orthophenylenediamine (Sigma, St. Louis, Mo.) and the reaction was terminated with 3 molar (M) H2SO4. Absorbance was read at 490 nanometers (nm). To determine disruption of Rb to E2F1, Phb, or HDAC1 the above protocol was used with the exception of coating GST Rb on the ELISA plate and adding the drugs in the presence or absence of GST E2F1, Phb, or HDAC1. […] Prohibitin monoclonal antibody was used at 1:1000 to detect the amount of Rb bound to Prohibitin. For disruption of MEK-Raf-1 binding ELISAs, Raf-1 1 microgram/milliliter (μg/mL) was coated on the plate and GST-MEK (20 μg/mL) was incubated +/− the compounds for 30 minutes at room temperature. Mek1 polyclonal antibody was used at 1:1000 to detect the binding of Raf-1 to Mek1. The IC50 concentrations for the Rb:Raf-1 inhibitors were determined by plotting with Origin 7.5 software (Origin, Northampton, Mass.).\nA screen was developed to identify small molecule inhibitors of the Rb:Raf-1 interaction. A diversity set, comprising 1981 compounds (National Cancer Institute, Bethesda, Md.) was examined using a glutathione S-transferase-retinoblastoma/glutathione S-transferase-Raf-1 kinase Enzyme-Linked ImmunoSorbent Assay screen (GST-Rb/GST-Raf-1 ELISA)."}, "[1]": {"system": "binding of Raf-1 to Mek1/2", "assay": "IP-western, A-549 cells, Raf-1-Mek1/2", "assay_type": "cell-based, human", "from_the_text": "Lysate preparation, pmmunoprecipitation, and pestern plotting."}, "Raf-1": {"target": "T2, Raf-1 (Homo sapiens, UniProt P04049)", "T2 construct": "purchased Upstate Signaling, Charlottesville, Va; (Raf-1); QED Bioscience, San Diego, Calif; (Rb)", "assay": "In vitro kinase assay, Raf-1", "assay_type": "biochemical", "protocol": "(§1) In vitro kinase assay. The kinase reaction for Raf-1 was carried out with 100 nanograms (ng) of Raf-1 (Upstate Signaling, Charlottesville, Va.), 0.5 μg of full-length Rb protein (QED Bioscience, San Diego, Calif.) as the substrate, 10 μM ATP, 10 μCi of [γ-^32P] ATP in the kinase assay buffer in the presence or absence of the drugs at 30° C. for 30 minutes. Cyclin D and E kinase assays are described in (Dasgupta 2004)."}, "cyclin E kinase activity": {"system": "cyclin E kinase activity", "assay": "In vitro kinase assay, cyclin E", "assay_type": "biochemical", "protocol": "as §1"}, "[2]": {"system": "A549 cells stably expressing sh6", "assay": "BrdU incorporation, A549 Rb shRNA sh6", "assay_type": "cell-based, human", "conditions": "20 μM, Rb knock down", "protocol": "(§2) Proliferation assays. Bromodeoxyuridine (BrdU) labeling kits were obtained from Roche Biochemicals (Indianapolis, Ind.). Cells were plated in poly-D-lysine coated chamber slides at a density of 10,000 cells per well and rendered quiescent by serum starvation for 24 hours. Cells were then re-stimulated with serum in the presence or absence of the indicated drugs for 18 h. S-phase cells were visualized by microscopy and quantitated by counting 3 fields of 100 in quadruplicate.\nTo further confirm that 3a requires a functional Rb to inhibit tumor cell proliferation, A549 cells (human epithelial lung carcinoma) were stably transfected with two different shRNA constructs (sh6 and sh8) to knock down Rb expression."}, "[3]": {"system": "H1650 non-small cell lung cancer cell line", "assay": "BrdU incorporation, S-phase entry, H1650", "assay_type": "cell-based", "conditions": "EGFR mutant NSCLC", "protocol": "as §2\nBecause many cancers contain more than one mutation in tumor suppressor genes or oncogenes, we determined the ability of 3a to inhibit proliferation in cell lines containing alterations in key regulatory genes."}, "[4]": {"system": "U251MG glioblastoma cell line", "assay": "BrdU incorporation, S-phase entry, U251MG", "assay_type": "cell-based", "conditions": "null for p16 and PTEN", "protocol": "as §2"}, "A375 melanoma cell line": {"system": "A375 melanoma cell line", "assay": "BrdU incorporation, S-phase entry, A375", "assay_type": "cell-based", "conditions": "V600E B-Raf", "protocol": "as §2\nA V600E mutation in the B-Raf oncogene is associated with 66% of melanomas and leads to an over-activation of phospho-Erk signaling. The A375 melanoma cell line harbors the V600E B-Raf mutation. Using the methods of the preceding examples, 3a was inhibited 58% of S-phase entry in this cell line."}, "LNCaP prostate cell line": {"system": "LNCaP prostate cell line", "assay": "BrdU proliferation assay, LNCaP", "assay_type": "cell-based", "protocol": "as §2\n(§3) Prostate cell lines LNCaP and PC3 both contain mutations in K-Ras and PTEN genes."}, "PC3 prostate cell line": {"system": "PC3 prostate cell line", "assay": "BrdU proliferation assay, PC3", "assay_type": "cell-based", "protocol": "as §2, §3"}, "[5]": {"system": "A549 cells infected with Ad-E2F1", "assay": "BrdU incorporation, A549 infected with Ad-E2F1", "assay_type": "cell-based, human", "conditions": "20 μM of 3a for 36 h", "protocol": "as §2\n(§4) To this end, A549 cells were infected with Ad-E2F1 or Ad-cyclin D, in the presence of 20 μM of 3a for 36 h. Ad-GFP infected cells were used as a control."}, "[6]": {"system": "A549 cells infected with Ad-cyclin D", "assay": "BrdU incorporation, A549 infected with Ad-cyclin D", "assay_type": "cell-based, human", "conditions": "20 μM of 3a for 36 h", "protocol": "as §2, §4"}, "SK-MEL-28 cells": {"system": "SK-MEL-28 cells", "assay": "Soft agar assay, SK-MEL-28", "assay_type": "cell-based", "protocol": "(§5) Soft Agar Assay. Soft agar assays were done in triplicate in 12-well plates (Corning, Corning N.Y.). First, the bottom layer of agar (0.6%) was allowed to solidify at room temperature. Next the top layer of agar was (0.3%) was mixed with 5,000 cells per well and the indicated drug. The drugs were added twice weekly in complete media to the agar wells. Colonies were quantified by staining with MTT (3-(4,5-Dimethylthiazol-2-yl)-2,5-diphenyltetrazolium bromide) 1 mg/mL for 1 hour at 37° C.\n(§6) Experiments were also carried out to examine the effect of 3a in inhibiting the adherence-independent growth of cancer cells in soft agar."}, "PANC1 cells": {"system": "PANC1 cells", "assay": "Soft agar assay, PANC1", "assay_type": "cell-based", "protocol": "as §5, §6"}},
  "note": "Entries after “also recorded” stand apart in the source; their conditions may differ.",
  "data": [
    {"smiles": "Cl.N=C(N)SCc1ccc(Cl)cc1Cl", "note": "[Compound 3a]", "values": [
      {"measurement": "IC50", "setting": "Rb:Raf-1 binding", "result": 77, "unit": "nM"},
      {"measurement": "serum-mediated binding of Raf-1 to Mek1/2", "setting": "[1]", "result": "not affected"},
      {"measurement": "Raf-1 kinase activity", "setting": "Raf-1", "result": "does not inhibit; also recorded: did not affect the kinase activities"},
      {"measurement": "cyclin E kinase activity", "setting": "cyclin E kinase activity", "result": "does not inhibit; also recorded: did not affect the kinase activities"},
      {"measurement": "S-phase entry (BrdU), A549 sh6", "setting": "[2]", "result": "does not inhibit the proliferation; also recorded: no effect"},
      {"measurement": "inhibition of S-phase entry, H1650", "setting": "[3]", "result": 90, "unit": "%"},
      {"measurement": "S-phase entry, U251MG", "setting": "[4]", "result": "inhibited S-phase entry"},
      {"measurement": "inhibition of S-phase entry, A375", "setting": "A375 melanoma cell line", "result": 58, "unit": "%"},
      {"measurement": "inhibition of proliferation, LNCaP", "setting": "LNCaP prostate cell line", "result": 86, "unit": "%"},
      {"measurement": "inhibition of proliferation, PC3", "setting": "PC3 prostate cell line", "result": 35, "unit": "%"},
      {"measurement": "rescue of anti-proliferative activity by E2F1 over expression", "setting": "[5]", "result": "sufficient to overcome; also recorded: efficiently overcame the anti-proliferative activity"},
      {"measurement": "rescue of anti-proliferative activity by cyclin D over expression", "setting": "[6]", "result": "only a partial effect"},
      {"measurement": "adherence-independent growth in soft agar, SK-MEL-28", "setting": "SK-MEL-28 cells", "result": "significantly inhibited the growth"},
      {"measurement": "adherence-independent growth in soft agar, PANC1", "setting": "PANC1 cells", "result": "significantly inhibited the growth"}
    ]}
  ]
}
